Test results reported in patent US11642391B2, “Compositions containing a pharmacophore with selectivity to diseased tissue and methods of making same” (Vascular BioSciences, priority 2014, dated 2023).

Key:
MDA-MB-231 cells = assay: Triple negative breast cancer model in athymic nude mice; assay type: in vivo; conditions: after 32 days; 3 mg/kg i.v. every other day, 15 doses
Method: In female athymic nude mice (CRL: NU(NCr)—Foxn1nu, 11 weeks old, Charles River), triple negative breast cancer tumors were initiated via subcutaneous injection of 5×10^6 MDA-MB-231 cells into the right flank. Tumor growth was monitored until the average tumor size approached 100-150 mm3. […] Animals were dosed intravenously every other day for a total of 15 doses. Tumor volume was measured using calipers twice per week and animals weighed daily on days 1-5 and then on a twice weekly schedule.

[1] = tested on: monocrotaline-induced PAH; assay: Monocrotaline-induced (MCT) PAH rat model, co-administration with imatinib; assay type: in vivo, Sprague-Dawley rats; conditions: prolonged intravenous administration of imatinib alone
Method: CAR pharmacophore co-administration with imatinib in a rat model of monocrotaline-induced (MCT) PAH was used to observe the therapeutic utility of CAR for targeting PAH. CAR pharmacophore peptide was intravenously co-administered with 10 mg/kg or 50 mg/kg imatinib for 14 days starting 4 weeks post MCT induction.
PAH was induced in male Sprague-Dawley rats (300-330 g, 10 weeks old, Harlan) with a single intraperitoneal dose of monocrotaline (60 mg/kg). Treatment was initiated four weeks after PAH induction with either imatinib (50 mg/kg or 10 mg/kg) or imatinib (50 mg/kg or 10 mg/kg)+CAR pharmacophore combination (3 mg/kg) for 2 weeks with daily i.v. (FIGS. 22 and 23) or daily sublingual administration.

CHO cells = conditions: prior experiments; linear truncated peptides; cited from earlier work
LPS-induced sepsis = assay: Survival in LPS mouse model of sepsis; assay type: in vivo, mice
Method: Fifty-percent of all mice with LPS-induced sepsis that are left untreated are dead within 48 hours. When these LPS mice are treated with clinically relevant doses of the common and experimental sepsis drugs hydrocortisone, antithrombin III or sivelestat, survival ranged from 40-56%, similar to current clinical outcomes. In contrast, when LPS mice were co-administered CAR at the same time as hydrocortisone, antithrombin III or sivelestat, experimental sepsis survival improved to 83-89%.
Injection of the bacterial protein, lipopolysaccharide (LPS), was used to induce sepsis in mice. Doses were given at 3, 6, 9, and 12 hours to match the clinical use of sivelestat. Survival was measured up to 48 hours after LPS injection. At 48 hours, the survival rate of CAR pharmacophore+sivelestat treated animals was 89% compared to 50% in both control and sivelestat only groups, representing a 78% increase in survival of animals treated with CAR pharmacophore (FIG. 12).
Sepsis was initiated and survival measured with doses given at 3 and 24 hours to match the clinical use of ATIII. […]
CAR pharmacophore dramatically improves survival in septic mice treated with hydrocortisone steroid. Sepsis was initiated and survival measured with doses given at 3 and 24 hours to match the clinical use of hydrocortisone. […]

sepsis = conditions: cited from earlier work
[2] = tested on: diseased kidney (anti-glomerular basement membrane antibody induced glomerular injury); assay: CAR pharmacophore targeting in rat model of crescentic glomerular nephritis; assay type: in vivo; conditions: i.v. 3.3 mg/kg B.W., 14 days after induction, kidneys harvested three hours after injection
Method: A rat model of crescentic glomerular nephritis (anti-glomerular basement membrane antibody induced glomerular injury) was used to observe the utility of CAR pharmacophore targeting in chronic kidney disease. Glomerulonephritis was induced in rat kidneys by i.v. injection of anti-glomerular basement membrane antibodies. 14 days after induction, CAR pharmacophore peptide or control ([…] SEQ ID NO: 34) peptide was i.v. injected at 3.3 mg/kg B.W. Kidneys were harvested three hours after CAR pharmacophore or control injection and Masson's trichrome (collagen) staining and fibronectin immunostaining were used to determine development of kidney disease and fibrosis formation.

[3] = tested on: lung, liver and kidney endothelium of septic animals; assay: Scanning electron micrograph of lung, liver and kidney tissue in LPS sepsis; assay type: in vivo, mice
[4] = meta-analysis of 8 trials (Iwata et al., 2010)

Which “bodyweight gain relative to average starting bodyweight” value (MDA-MB-231 cells) does the source give for `CC(=O)O[C@H]1C(=O)[C@@]2(C)[C@H]([C@H](OC(=O)c3ccccc3)[C@]3(O)C[C@H](OC(=O)[C@H](O)[C@@H](NC(=O)c4ccccc4)c4ccccc4)C(C)=C1C3(C)C)[C@]1(OC(C)=O)CO[C@@H]1C[C@@H]2O` [paclitaxel] here?
The value was 5%.

With `Cc1ccc(NC(=O)c2ccc(CN3CCN(C)CC3)cc2)cc1Nc1nccc(-c2cccnc2)n1` [imatinib] as the molecule, how does the effect on bodyweight [1] read?
The effect on bodyweight was “significant adverse effect on bodyweight”.

Which “cell binding and tissue homing” value (CHO cells) does the source give for CARSKNK [SEQ ID NO: 24] here?
Its value is “highly active”.

Which results are given for `C[C@]12CCC(=O)C=C1CC[C@@H]1[C@@H]2[C@@H](O)C[C@@]2(C)[C@H]1CC[C@]2(O)C(=O)CO` [hydrocortisone]?
survival rate (LPS-induced sepsis; 48 hours, hydrocortisone only, doses at 3 and 24 hours): 56%; super infection (sepsis; low-dose hydrocortisone therapy, septic shock): more episodes of super infection; survival in patients with septic shock (sepsis; low-dose hydrocortisone therapy): did not improve survival

Which “accumulation in the diseased kidney” value [2] does the source give for CGGGGGGGC [control peptide] here?
The value was “largely cleared from the kidney”.

Which results are given for `CC(C)(C)C(=O)Oc1ccc(S(=O)(=O)Nc2ccccc2C(=O)NCC(=O)O)cc1` [sivelestat]?
survival rate (LPS-induced sepsis; 48 hours after LPS injection, doses at 3, 6, 9, and 12 hours): 50%; pulmonary arteriole endothelium degradation (SEM, lung) [3]: did not prevent degradation of the continuous pulmonary arteriole endothelium; sieve plates (SEM, liver) [3]: not able to prevent defenestration of sieve plates; tissue damage (SEM, kidney) [3]: did not prevent gross tissue damage; 180 day mortality (sepsis; [4]): possibly increased; mechanical ventilation days (sepsis; [4]): no difference; mortality rate within 28-30 days after randomization (sepsis; [4]): no difference
